Laboratory results reported in the supplement of paper PMC10307832.

How the values were obtained:
Test in all cases: relative viability (nuclei count vs DMSO), 5 days (fraction); higher = more cells survive
XMD8-85 + Palbociclib = compound: CN1CCN(CC1)C2=CC(=C(C=C2)NC3=NC=C4C(=N3)N(C5=CC=CC=C5C(=O)N4C)C)OC [XMD8-85] + CC(=O)c1c(C)c2cnc(Nc3ccc(N4CCNCC4)cn3)nc2n(C2CCCC2)c1=O [Palbociclib] (partner 0.5 µM)
Outline: (§1)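 Values are medians from duplicate plates. Each reflects relative viability, defined as the nuclei count of treated wells over that of vehicle wells. Lung cancer cell lines in 1536-well plates were pin-tool dosed one day after seeding with one drug alone or with a fixed anchor-drug dose plus five library-drug doses (not always all listed) in √10 steps, then fixed, stained and imaged at 4× after 5 days.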

XMD8-85 + Luminespib = compound: CN1CCN(CC1)C2=CC(=C(C=C2)NC3=NC=C4C(=N3)N(C5=CC=CC=C5C(=O)N4C)C)OC [XMD8-85] + CCNC(=O)c1noc(-c2cc(C(C)C)c(O)cc2O)c1-c1ccc(CN2CCOCC2)cc1 [Luminespib] (partner 0.01 µM)
Outline: as §1

XMD8-85 + AZD7762 = compound: CN1CCN(CC1)C2=CC(=C(C=C2)NC3=NC=C4C(=N3)N(C5=CC=CC=C5C(=O)N4C)C)OC [XMD8-85] + NC(=O)Nc1cc(-c2cccc(F)c2)sc1C(=O)N[C@H]1CCCNC1 [AZD7762] (partner 0.2 µM)
Outline: as §1

4EGI-1 + Palbociclib = compound: O=C(O)C(Cc1ccccc1[N+](=O)[O-])=NNc1nc(-c2ccc(Cl)c(Cl)c2)cs1 (mixture of isomers) [4EGI-1] + CC(=O)c1c(C)c2cnc(Nc3ccc(N4CCNCC4)cn3)nc2n(C2CCCC2)c1=O [Palbociclib] (partner 0.5 µM)
Outline: as §1

Row | Cell Line | relative viability (XMD8-85 + Palbociclib; first compound 0.08 µM) | relative viability (XMD8-85 + Palbociclib; first compound 0.253 µM) | relative viability (XMD8-85 + Palbociclib; first compound 0.8 µM) | relative viability (XMD8-85 + Palbociclib; first compound 2.53 µM) | relative viability (XMD8-85 + Palbociclib; first compound 8 µM) | relative viability (XMD8-85 + Luminespib; first compound 0.08 µM) | relative viability (XMD8-85 + Luminespib; first compound 0.253 µM) | relative viability (XMD8-85 + Luminespib; first compound 0.8 µM) | relative viability (XMD8-85 + Luminespib; first compound 2.53 µM) | relative viability (XMD8-85 + Luminespib; first compound 8 µM) | relative viability (XMD8-85 + AZD7762; first compound 0.08 µM) | relative viability (XMD8-85 + AZD7762; first compound 0.253 µM) | relative viability (XMD8-85 + AZD7762; first compound 0.8 µM) | relative viability (XMD8-85 + AZD7762; first compound 2.53 µM) | relative viability (XMD8-85 + AZD7762; first compound 8 µM) | relative viability (4EGI-1 + Palbociclib; first compound 0.5 µM) | relative viability (4EGI-1 + Palbociclib; first compound 5 µM) | relative viability (4EGI-1 + Palbociclib; first compound 15.81 µM) | relative viability (4EGI-1 + Palbociclib; first compound 50 µM) | relative viability (4EGI-1 + Palbociclib; first compound 1.581 µM)
1 | NCI-H322M | 0.466 | 0.447 | 0.457 | 0.444 | 0.431 | 0.609 | 0.823 | 0.797 | 0.927 | 0.68 | 0.566 | 0.606 | 0.568 | 0.451 | 0.38 | 0.461 | 0.516 | 0.46 | 0.453 | 
2 | LU99A | 0.367 | 0.36 | 0.458 | 0.46 | 0.368 | 0.228 | 0.252 | 0.206 | 0.309 | 0.193 | 0.328 | 0.504 | 0.407 | 0.378 | 0.341 | 0.41 | 0.396 | 0.498 | 0.297 | 0.281
3 | PC-14 | 0.552 | 0.44 | 0.596 | 0.404 | 0.167 | 0.14 | 0.167 | 0.179 | 0.154 | 0.134 | 0.352 | 0.364 | 0.34 | 0.394 | 0.18 | 0.559 | 0.659 | 0.188 | 0.0675 | 
4 | NCI-H358 | 0.244 | 0.126 | 0.138 | 0.155 | 0.132 | 0.303 | 0.172 | 0.376 | 0.339 | 0.239 | 0.446 | 0.497 | 0.667 | 0.639 | 0.399 | 0.12 | 0.152 | 0.153 | 0.12 | 0.153
5 | NCI-H2347 | 0.523 | 0.457 | 0.395 | 0.456 | 0.352 | 0.545 | 0.405 | 0.243 | 0.208 | 0.306 | 0.686 |  | 0.732 |  | 0.704 | 0.427 | 0.447 | 0.413 | 0.34 | 0.405
6 | NCI-H1395 | 0.503 | 0.61 | 0.621 | 0.54 | 0.495 | 0.784 | 0.603 | 0.731 | 0.684 | 0.482 | 0.382 | 0.393 | 0.395 | 0.418 | 0.35 | 0.697 | 0.634 | 0.594 | 0.485 | 
7 | NCI-H650 | 0.275 | 0.32 | 0.302 | 0.288 | 0.255 | 0.892 | 0.862 | 0.773 | 0.82 | 0.639 | 0.92 | 0.991 | 1 | 0.829 | 0.781 | 0.319 | 0.295 | 0.319 | 0.33 | 
8 | NCI-H1437 | 0.295 | 0.311 | 0.289 | 0.309 | 0.203 | 1.15 | 1.19 | 1.15 | 1.07 | 0.813 | 1.11 | 1.13 | 1.15 | 1.09 | 0.886 | 0.368 | 0.335 | 0.279 | 0.168 | 0.308
